The source of these data is US11618743B2, “Herbicidal compounds” (SYNGENTA PARTICIPATIONS AG, priority 2017, dated 2023).

Read-outs that look alike come from different tables or passages of the source.

Format in all cases: in vivo
Experiment [1] relates to Amaranthus retroflexus (AMARE). Briefly: Post-emergence efficacy, Method B. The settings on record: 360 h, evaluated after 15 days, read-out: Control of weed species after post-emergence application, AMARE (100=total damage to plant; 0=no damage to plant); for pest or weed control at 500 g/ha: Application Rate 500 g/Ha; for pest or weed control at 1000 g/ha: Application Rate 1000 g/Ha. How it is done:
(§1) An “instant formulation”, known as the IF50, containing 50 g/L of the “technical” (i.e. unformulated) active ingredient was prepared by dissolving the active ingredient in a mixture of organic solvents and emulsifier, details of which are provided in the table. This IF50 was then mixed with a small, variable amount of acetone to aid dissolution, before addition of an aqueous solution of 1% v/v ammonium sulphate+1% v/v Empicol ESC70 (Sodium lauryl ether sulphate) adjuvant, as the aqueous diluent, to form an aqueous spray solution which contains a predetermined concentration of the active ingredient (which varies depending on the application rate of the active ingredient to the plants).
(§2) Composition of the mixture of organic solvents and emulsifier used as a base for the instant formulation.
(§3) This aqueous spray solution was then sprayed onto the plants, after about 12 days' cultivation. The plants were grown from seeds sown in standard soil, placed in a glasshouse under controlled conditions (at 24/18° C. or 20/16° C., day/night; 16 hours light; 65% humidity). After spray application the plants were then grown on in a glasshouse under the same conditions and watered twice daily. After 15 days the test was evaluated (100=total damage to plant; 0=no damage to plant).
(§4) Ipomoea hederacea (IPOHE), Euphorbia heterophylla (EPHHL), Chenopodium album (CHEAL), 20 Amaranthus retroflexus (AMARE), Lolium perenne (LOLPE), Digitaria sanguinalis (DIGSA), Eleusine indica (ELEIN), Echinochloa crus-galli (ECHCG), Setaria faberi (SETFA)

For experiment [2], the system named is Chenopodium album (CHEAL). In words: Post-emergence efficacy, Method B. The settings on record: 360 h, read-out: Control of weed species after post-emergence application, CHEAL (100=total damage to plant; 0=no damage to plant). How it is done:
as §1, §2, §3, §4

Experiment [3] relates to Digitaria sanguinalis (DIGSA). Briefly: Post-emergence efficacy, Method B. Conditions: 360 h, evaluated after 15 days, read-out: Control of weed species after post-emergence application, DIGSA (100=total damage to plant; 0=no damage to plant); for pest or weed control at 500 g/ha: Application Rate 500 g/Ha; for pest or weed control at 1000 g/ha: Application Rate 1000 g/Ha. How it is done: as §1, §2, §3, §4

Experiment [4] deals with Echinochloa crus-galli (ECHCG). Briefly: Post-emergence efficacy, Method B. The settings on record: 360 h, read-out: Control of weed species after post-emergence application, ECHCG (100=total damage to plant; 0=no damage to plant). As for the experimental part:
as §1, §2, §3, §4

A further experiment deals with Eleusine indica (ELEIN). Briefly: Post-emergence efficacy, Method B. Conditions: 360 h, read-out: Control of weed species after post-emergence application, ELEIN (100=total damage to plant; 0=no damage to plant). As for the experimental part:
as §1, §2, §3, §4

For experiment [5], the system named is Euphorbia heterophylla (EPHHL). In words: Post-emergence efficacy, Method B. The settings on record: 360 h, evaluated after 15 days, read-out: Control of weed species after post-emergence application, EPHHL (100=total damage to plant; 0=no damage to plant); for pest or weed control at 500 g/ha: Application Rate 500 g/Ha; for pest or weed control at 1000 g/ha: Application Rate 1000 g/Ha. How it is done: as §1, §2, §3, §4

Experiment [6] deals with Ipomoea hederacea (IPOHE). Briefly: Post-emergence efficacy, Method B. Conditions: 360 h, read-out: Control of weed species after post-emergence application, IPOHE (100=total damage to plant; 0=no damage to plant). How it is done:
as §1, §2, §3, §4

Another experiment relates to Lolium perenne (LOLPE). In words: Post-emergence efficacy, Method B. Conditions: 360 h, read-out: Control of weed species after post-emergence application, LOLPE (100=total damage to plant; 0=no damage to plant). As for the experimental part: as §1, §2, §3, §4
Experiment [7] deals with Setaria faberi (SETFA). In words: Post-emergence efficacy, Method B. The settings on record: 360 h, evaluated after 15 days, read-out: Control of weed species after post-emergence application, SETFA (100=total damage to plant; 0=no damage to plant); for pest or weed control at 500 g/ha: Application Rate 500 g/Ha; for pest or weed control at 1000 g/ha: Application Rate 1000 g/Ha. As for the experimental part: as §1, §2, §3, §4

In experiment [8] the test system is Digitaria sanguinalis (DIGSA). In words: Post-emergence efficacy, Method A. Conditions: Application rate 500 g/Ha; evaluated after 13 days; 100=total damage to plant, 0=no damage. The method in brief:
(§5)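 Foliar application to young plants (14 d post-sowing) in standard soil. Growth conditions before and after: 24/16 °C, 14 h light, 65% humidity. Percent damage read at 13 days after treatment.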

The test system of experiment [9] is Echinochloa crus-galli (ECHCG). Briefly: Post-emergence efficacy, Method A. Conditions: Application rate 500 g/Ha; evaluated after 13 days; 100=total damage to plant, 0=no damage. In a few lines:
as §5

The subject of experiment [10] is Setaria faberi (SETFA). Briefly: Post-emergence efficacy, Method A. Conditions: Application rate 500 g/Ha; evaluated after 13 days; 100=total damage to plant, 0=no damage. The method in brief:
as §5

The mark [11] stands for this setting: Method B, Application Rate 500 g/Ha, evaluated after 15 days.
Where [12] appears, read: Method B, Application Rate 1000 g/Ha, evaluated after 15 days.

For the compound `O=S(=O)([O-])CC[n+]1ccc(-c2ccncn2)cn1` [Compound A4], the pest or weed control at 500 g/ha in experiment [1] worked out at 100%; in [2] (setting [11]), 80%; in experiment [3], 100%; in [4] (setting [11]), 70%; in the experiment with Eleusine indica (ELEIN) (setting [11]), 80%; in experiment [5] it was 100%. In addition, the figures for the pest or weed control at 500 g/ha (in experiment [6] (setting [11]); with Lolium perenne (LOLPE) (setting [11]); in the experiment with Setaria faberi (SETFA) [7]) were 100%, 90% and 40%, respectively.
Turning to `O=C(O)CC[n+]1ccc(-c2ccncn2)cn1` [Compound A28], the pest or weed control at 1000 g/ha in [1] came to 100%; in experiment [2], 90%; in experiment [3], 100%; in [4], 100%; in the experiment on Eleusine indica (ELEIN), 100%; in experiment [5], 100%. For the same compound, the pest or weed control at 1000 g/ha worked out at 100% in experiment [6], 70% in the experiment on Lolium perenne (LOLPE) and 40% in the experiment with Setaria faberi (SETFA) [7].
For `Nc1ccnc(-c2cc[n+](CCC(=O)O)nc2)n1` [Compound A41], the pest or weed control at 1000 g/ha stood at 100% in experiment [1]; 90% in experiment [2]; 100% in [3]; 100% in experiment [4]; 50% in the experiment on Eleusine indica (ELEIN); 100% in [5]. The pest or weed control at 1000 g/ha came to 20% in experiment [6], 60% with Lolium perenne (LOLPE) and 100% in the experiment on Setaria faberi (SETFA) [7].
With `O=C(O)CC[n+]1ccc(-c2cccnn2)cn1` [Compound A138, 3-(4-pyridazin-3-ylpyridazin-1-ium-1-yl)propanoic acid chloride], the pest or weed control at 1000 g/ha (in experiment [1]; in experiment [2]; in experiment [3]; in experiment [4]; with Eleusine indica (ELEIN); in experiment [5]) was 100% in each case. The values for the pest or weed control at 1000 g/ha (in [6]; in the experiment with Lolium perenne (LOLPE); with Setaria faberi (SETFA) [7]) were 40%, 100% and 100%, respectively.
As for `N[C@H](CC[n+]1ccc(-c2ncccn2)cn1)C(=O)O` [Compound A207, [(1R)-1-carboxy-3-(4-pyrimidin-2-ylpyridazin-1-ium-1-yl)propyl]ammonium 2,2,2-trifluoroacetate], the pest or weed control at 1000 g/ha in [1] amounted to 100%; in [2], 90%; in [3], 90%; in experiment [4], 100%; in the experiment on Eleusine indica (ELEIN), 100%; in experiment [5], 70%. The pest or weed control at 1000 g/ha in [6] amounted to 100%; in the experiment with Lolium perenne (LOLPE) it was 20%; in the experiment with Setaria faberi (SETFA) [7], 100%.
As for `Cl.N[C@@H](CCC[n+]1ccc(-c2ncccn2)cn1)C(=O)O.[Cl-]` [Compound A211, [(1S)-1-carboxy-4-(4-pyrimidin-2-ylpyridazin-1-ium-1-yl)butyl]ammonium Dichloride], the “Control of weed species after post-emergence application, DIGSA” value in experiment [8] is on record as 100. For the same compound, the “Control of weed species after post-emergence application, ECHCG” value in experiment [9] is on record as 100. Further, the “Control of weed species after post-emergence application, SETFA” value with Setaria faberi (SETFA) [10] is recorded as 100. Besides, the pest or weed control at 500 g/ha in [1] was 100%; in experiment [2], 90%; in [3], 100%; in [4], 100%; with Eleusine indica (ELEIN), 100%; in experiment [5] it was 80%. The pest or weed control at 500 g/ha in [6] is 100%; with Lolium perenne (LOLPE), 10%; in the experiment on Setaria faberi (SETFA) [7] it was 100%.
As for `O=S(=O)([O-])CC[n+]1ccc(-c2cccnn2)cn1` [Compound A213, 2-(4-pyridazin-1-ium-3-ylpyridazin-1-ium-1-yl)ethanesulfonate chloride], the pest or weed control at 1000 g/ha stood at 100% in experiment [1]; 80% in experiment [2]; 100% in experiment [3]; 100% in experiment [4]; 100% in the experiment on Eleusine indica (ELEIN); 100% in [5]. The figures for the pest or weed control at 1000 g/ha (in experiment [6]; with Lolium perenne (LOLPE); in the experiment on Setaria faberi (SETFA) [7]) were 80%, 90% and 100%, respectively.
Turning to `O=C([O-])CCC[n+]1ccc(-c2ncccn2)cn1` [Compound A220], the pest or weed control at 1000 g/ha in experiment [1] is 100%; in [2] (setting [12]), 90%; in experiment [3], 100%; in [4] (setting [12]) it was 90%; in the experiment with Eleusine indica (ELEIN) (setting [12]), 100%; in experiment [5], 100%. For the same compound, the results for the pest or weed control at 1000 g/ha (in experiment [6] (setting [12]); with Lolium perenne (LOLPE) (setting [12]); with Setaria faberi (SETFA) [7]) were 30%, 90% and 30%, respectively.
In the case of `N#C[N-]C(=O)CC[n+]1ccc(-c2ncccn2)cn1` [Compound A226], the pest or weed control at 1000 g/ha in experiment [1] stood at 100%; in [2] (setting [12]) it was 100%; in [3], 100%; in experiment [4] (setting [12]), 100%; in experiment [6] (setting [12]), 100%; in the experiment on Lolium perenne (LOLPE) (setting [12]) it was 70%. Besides, the pest or weed control at 1000 g/ha in the experiment on Setaria faberi (SETFA) [7] turned out to be 70%.
